Test results from the NIST ThermoML archive (doi:10.1021/je900093h).
± gives the expanded uncertainty stated by the source.

Columns and labels:
[1] = Molar enthalpy of transition or fusion; conditions: Crystal
[2] = molar heat capacity at constant pressure; conditions: 101.33 kPa, Vacuum adiabatic calorimetry

For `CCCCCCCCCC(=O)OCC` [ethyl decanoate], the “Molar enthalpy of transition or fusion” value [1] was 7.717 ± 0.0526 kcal/mol, the “molar heat capacity at constant pressure” value ([2]; 5 K, Crystal) was 0.498 ± 0.019 J/K/mol and the “molar heat capacity at constant pressure” value ([2]; 10 K, Crystal) was 4.477 ± 0.053 J/K/mol. For the same compound, the “molar heat capacity at constant pressure” value ([2]; 15 K, Crystal) was 11.92 ± 0.12 J/K/mol, the “molar heat capacity at constant pressure” value ([2]; 20 K, Crystal) was 21.04 ± 0.19 J/K/mol and the “molar heat capacity at constant pressure” value ([2]; 25 K, Crystal) was 30.97 ± 0.27 J/K/mol. For the same compound, the “molar heat capacity at constant pressure” value ([2]; 30 K, Crystal) was 41.18 ± 0.34 J/K/mol, the “molar heat capacity at constant pressure” value ([2]; 35 K, Crystal) was 51.36 ± 0.43 J/K/mol and the “molar heat capacity at constant pressure” value ([2]; 40 K, Crystal) was 61.27 ± 0.51 J/K/mol. The “molar heat capacity at constant pressure” value ([2]; 45 K, Crystal) was 71.2 ± 0.59 J/K/mol, the “molar heat capacity at constant pressure” value ([2]; 50 K, Crystal) was 80.91 ± 0.66 J/K/mol and the “molar heat capacity at constant pressure” value ([2]; 60 K, Crystal) was 98.99 ± 0.81 J/K/mol. The “molar heat capacity at constant pressure” value ([2]; 70 K, Crystal) was 115.2 ± 0.9 J/K/mol, the “molar heat capacity at constant pressure” value ([2]; 80 K, Crystal) was 130.2 ± 1.1 J/K/mol and the “molar heat capacity at constant pressure” value ([2]; 90 K, Crystal) was 144.3 ± 1.2 J/K/mol. The “molar heat capacity at constant pressure” value ([2]; 100 K, Crystal) was 157.4 ± 1.3 J/K/mol, the “molar heat capacity at constant pressure” value ([2]; 110 K, Crystal) was 169.3 ± 1.4 J/K/mol and the “molar heat capacity at constant pressure” value ([2]; 120 K, Crystal) was 180 ± 1.5 J/K/mol. For the same compound, the “molar heat capacity at constant pressure” value ([2]; 130 K, Crystal) was 189.6 ± 1.5 J/K/mol, the “molar heat capacity at constant pressure” value ([2]; 140 K, Crystal) was 198.3 ± 1.6 J/K/mol and the “molar heat capacity at constant pressure” value ([2]; 150 K, Crystal) was 206.8 ± 1.7 J/K/mol. For the same compound, the “molar heat capacity at constant pressure” value ([2]; 160 K, Crystal) was 214.7 ± 1.7 J/K/mol, the “molar heat capacity at constant pressure” value ([2]; 170 K, Crystal) was 222.5 ± 1.8 J/K/mol and the “molar heat capacity at constant pressure” value ([2]; 180 K, Crystal) was 230.5 ± 1.9 J/K/mol. The “molar heat capacity at constant pressure” value ([2]; 190 K, Crystal) was 238.8 ± 1.9 J/K/mol, the “molar heat capacity at constant pressure” value ([2]; 200 K, Crystal) was 247.4 ± 2 J/K/mol and the “molar heat capacity at constant pressure” value ([2]; 210 K, Crystal) was 256.7 ± 2.1 J/K/mol. The “molar heat capacity at constant pressure” value ([2]; 220 K, Crystal) was 266.7 ± 2.2 J/K/mol, the “molar heat capacity at constant pressure” value ([2]; 230 K, Crystal) was 277.5 ± 2.2 J/K/mol and the “molar heat capacity at constant pressure” value ([2]; 240 K, Crystal) was 288.9 ± 2.3 J/K/mol. For the same compound, the “molar heat capacity at constant pressure” value ([2]; 250 K, Crystal) was 301.2 ± 2.4 J/K/mol, the “molar heat capacity at constant pressure” value ([2]; 253.6 K, Crystal) was 305.7 ± 2.5 J/K/mol and the “molar heat capacity at constant pressure” value ([2]; 253.6 K, Liquid) was 386.5 ± 3.1 J/K/mol. For the same compound, the “molar heat capacity at constant pressure” value ([2]; 260 K, Liquid) was 388.1 ± 3.1 J/K/mol, the “molar heat capacity at constant pressure” value ([2]; 270 K, Liquid) was 391.3 ± 3.2 J/K/mol and the “molar heat capacity at constant pressure” value ([2]; 280 K, Liquid) was 395.2 ± 3.2 J/K/mol. For the same compound, the “molar heat capacity at constant pressure” value ([2]; 290 K, Liquid) was 399.6 ± 3.2 J/K/mol, the “molar heat capacity at constant pressure” value ([2]; 298.15 K, Liquid) was 403.5 ± 3.3 J/K/mol and the “molar heat capacity at constant pressure” value ([2]; 300 K, Liquid) was 404.4 ± 3.3 J/K/mol. The “molar heat capacity at constant pressure” value ([2]; 310 K, Liquid) was 409.6 ± 3.3 J/K/mol, the “molar heat capacity at constant pressure” value ([2]; 320 K, Liquid) was 415 ± 3.3 J/K/mol and the “molar heat capacity at constant pressure” value ([2]; 330 K, Liquid) was 420.6 ± 3.4 J/K/mol. The “molar heat capacity at constant pressure” value ([2]; 340 K, Liquid) was 426.4 ± 3.4 J/K/mol, the “molar heat capacity at constant pressure” value ([2]; 350 K, Liquid) was 432.3 ± 3.5 J/K/mol and the “molar heat capacity at constant pressure” value ([2]; 360 K, Liquid) was 438.3 ± 3.5 J/K/mol. The “molar heat capacity at constant pressure” value ([2]; 370 K, Liquid) was 444.5 ± 3.6 J/K/mol.
